Source: US11365192B2, “Pyridine compound substituted with azole” (TAISHO PHARMACEUTICAL CO., LTD., priority 2017, dated 2022)

Tests used:
human CYP4F2 = human CYP4F2 (Homo sapiens (Human), UniProt P78329); experiment: Inhibition test against 20-HETE producing enzyme CYP4F2 (luciferine derivative, luminescence); type: biochemical
Summary of the method: (§1)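 E. coli membranes (100 μg/mL protein) expressing human enzyme, room temperature 60 min, luciferin-derivative luminescence; IC50 from % inhibition. CYP4F2: 50 mM KPO4 pH 7.4, 2.5 μM substrate, 1 mM NADPH. CYP4A11: 100 mM Tris-HCl pH 7.5, 60 μM substrate, NADP+/glucose 6-phosphate/G6PDH regenerating system, 3.3 mM MgCl2.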

human CYP4A11 = human CYP4A11 (Homo sapiens (Human), UniProt Q02928); experiment: Inhibition test against 20-HETE producing enzyme CYP4A11 (luciferine derivative, luminescence); type: biochemical
Chain of human CYP4A11 (Q02928 5-519): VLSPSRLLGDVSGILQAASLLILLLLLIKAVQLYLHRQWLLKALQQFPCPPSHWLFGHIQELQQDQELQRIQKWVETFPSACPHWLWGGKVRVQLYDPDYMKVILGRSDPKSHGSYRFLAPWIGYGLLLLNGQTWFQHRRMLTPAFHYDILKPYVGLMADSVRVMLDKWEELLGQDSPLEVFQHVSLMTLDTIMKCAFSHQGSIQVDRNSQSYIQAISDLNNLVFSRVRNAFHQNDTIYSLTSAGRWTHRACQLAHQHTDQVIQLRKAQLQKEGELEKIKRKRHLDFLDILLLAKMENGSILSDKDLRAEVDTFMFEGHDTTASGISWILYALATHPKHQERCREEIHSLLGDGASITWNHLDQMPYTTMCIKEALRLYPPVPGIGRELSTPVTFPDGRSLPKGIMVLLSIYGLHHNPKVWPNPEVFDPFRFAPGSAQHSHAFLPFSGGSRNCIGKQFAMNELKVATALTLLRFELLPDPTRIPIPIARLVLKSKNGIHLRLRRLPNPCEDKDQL
Summary of the method: as §1

[1] = E. coli membrane fraction expressing human CYP4F2, 2.5 μM luciferine derivative, room temperature 60 minutes
[2] = E. coli membrane fraction expressing human CYP4A11, 60 μM luciferine derivative, room temperature 60 minutes
[3] = human CYP4F2, luciferine derivative, luminescence
[4] = human CYP4A11, luciferine derivative, luminescence

Chain of human CYP4F2 (P78329 5-520): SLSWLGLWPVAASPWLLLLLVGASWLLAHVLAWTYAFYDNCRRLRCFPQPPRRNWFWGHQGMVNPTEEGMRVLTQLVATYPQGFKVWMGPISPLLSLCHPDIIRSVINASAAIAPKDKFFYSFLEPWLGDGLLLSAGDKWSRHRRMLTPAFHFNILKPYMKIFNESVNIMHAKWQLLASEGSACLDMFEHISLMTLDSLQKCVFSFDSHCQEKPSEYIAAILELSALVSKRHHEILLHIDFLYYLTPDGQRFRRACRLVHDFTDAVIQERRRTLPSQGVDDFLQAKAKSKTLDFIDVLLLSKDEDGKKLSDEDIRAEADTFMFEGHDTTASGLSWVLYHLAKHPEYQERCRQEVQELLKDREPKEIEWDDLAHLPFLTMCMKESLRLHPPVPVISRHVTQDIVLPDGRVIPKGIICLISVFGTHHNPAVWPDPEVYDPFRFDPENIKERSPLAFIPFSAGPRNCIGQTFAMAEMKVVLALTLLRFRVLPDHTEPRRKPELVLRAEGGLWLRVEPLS

SMILES | IC50 (human CYP4F2; [1]) [nM] | IC50 (human CYP4A11; [2]) [nM] | IC50 (human CYP4F2; [3]) [nM] | IC50 (human CYP4A11; [4]) [nM]
O=C(O)CCNC(=O)c1cc(COc2ccc(-c3ccn[nH]3)nc2)ccn1 [Example 49-1, 3-[[Oxo-[4-[[6-(1H-pyrazol-5-yl)-3-pyridinyl]oxymethyl]-2-pyridinyl]methyl]amino]propanoic Acid] | 1100 | 1200 |  | 
O=C(CCCCCCOc1ccc(-c2ccn[nH]2)nc1)NC1(C(=O)O)CCCC1 [Example 50-1, 1-[[1-Oxo-7-[[6-(1H-pyrazol-5-yl)-3-pyridinyl]oxy]heptyl]amino]-1-cyclopentanecarboxylic Acid] | 2800 | 75 |  | 
COC(=O)N1CCC(O)(c2cccc(COc3ccc(-c4ccn[nH]4)nc3)c2)CC1 [Example 51-1, Methyl 4-hydroxy-4-[3-[[6-(1-H-pyrazol-5-yl)-3-pyridinyl]oxymethyl]phenyl]-1-piperidinecarboxylate] | 3 | 270 |  | 
CN(C)C(=O)N1CCC(O)(c2cccc(COc3ccc(-c4ccn[nH]4)nc3)c2)CC1 [Example 51-2] | 3.5 | 310 |  | 
CC(=O)N1CCC(O)(c2cccc(COc3ccc(-c4ccn[nH]4)nc3)c2)CC1 [Example 52-1, 1-[4-Hydroxy-4-[3-[[6-(1-H-pyrazol-5-yl)-3-pyridinyl]oxymethyl]phenyl]-1-piperidinyl]ethanone] | 4.4 | 710 |  | 
CC(=O)N1CC(O)(c2cccc(COc3ccc(-c4ccn[nH]4)nc3)c2)C1 [Example 52-2] | 50 | 520 |  | 
NC(=O)c1cccc(COc2ccc(-c3ccn[nH]3)nc2)c1 [Example 53-1, 3-[[6-(1H-Pyrazol-5-yl)-3-pyridinyl]oxymethyl]benzamide] | 190 | 110 |  | 
NC(=O)c1cc(COc2ccc(-c3n[nH]cc3Cl)nc2)ccn1 [Example 53-2] | 16 | 950 |  | 
c1cc(-c2ccc(OCCCCCc3nnn[nH]3)cn2)[nH]n1 [Example 62-1, 2-(1H-Pyrazol-5-yl)-5-[5-(1H-tetrazol-5-yl)pentoxy]pyridine] | 3500 | 28 |  | 
O=C(O)[C@@H]1CCc2ccc(COc3ccc(-c4ccn[nH]4)nc3)cc2C1 [Example 69-1-1] |  |  | 240 | 21
O=C(O)[C@H]1CCc2ccc(COc3ccc(-c4ccn[nH]4)nc3)cc2C1 [Example 69-1-2] |  |  | 200 | 25
O=C(O)[C@@H]1COc2ccc(COc3ccc(-c4ccn[nH]4)nc3)cc2C1 [Example 69-2-1] |  |  | 600 | 37
O=C(O)[C@H]1COc2ccc(COc3ccc(-c4ccn[nH]4)nc3)cc2C1 [Example 69-2-2] |  |  | 1100 | 36
O=C(O)[C@@H]1CCc2ccc(COc3ccc(-c4ccn[nH]4)nc3)cc2O1 [Example 69-3-1] |  |  | 110 | 23
O=C(O)[C@H]1CCc2ccc(COc3ccc(-c4ccn[nH]4)nc3)cc2O1 [Example 69-3-2] |  |  | 300 | 220
O=C(O)[C@@H]1CCCN(S(=O)(=O)c2cccc(COc3ccc(-c4ccn[nH]4)nc3)c2)C1 [Example 69-4-1] |  |  | 86 | 27
O=C(O)[C@H]1CCCN(S(=O)(=O)c2cccc(COc3ccc(-c4ccn[nH]4)nc3)c2)C1 [Example 69-4-2] |  |  | 670 | 40

Other lines, results leading:

IC50 (human CYP4F2; [1]) [nM] | IC50 (human CYP4A11; [2]) [nM] | IC50 (human CYP4F2; [3]) [nM] | IC50 (human CYP4A11; [4]) [nM] | SMILES
21000 | 70 |  |  | CS(=O)(=O)NC(=O)CCCCCOc1ccc(-c2ccn[nH]2)nc1 [Example 54-1, N-Methylsulfonyl-6-[[6-(1H-pyrazol-5-yl)-3-pyridinyl]oxy]hexanamide]
6500 | 200 |  |  | CC(C)(CCNC(=O)N1CCC[C@@H](COc2ccc(-c3ccn[nH]3)nc2)C1)C(=O)O [Example 55-1, 2,2-Dimethyl-4-[[oxo-[(3R)-3-[[6-(1H-pyrazol-5-yl)-3-pyridinyl]oxymethyl]-1-piperidinyl]methyl]amino]butanoic Acid]
450 | 140 |  |  | CC(C)S(=O)(=O)Nc1cccc(COc2ccc(-c3ccn[nH]3)nc2)c1 [Example 56-1, N-[3-[[6-(1H-Pyrazol-5-yl)-3-pyridinyl]oxymethyl]phenyl]-2-propanesulfonamide]
7300 | 6700 |  |  | CS(=O)(=O)N[C@H]1CC[C@@H](Oc2ccc(-c3ccn[nH]3)nc2)CC1 [Example 57-2]
2000 | 2000 |  |  | CN([C@H]1CC[C@H](Oc2ccc(-c3ccn[nH]3)nc2)CC1)S(C)(=O)=O [Example 57-3]
120 | 580 |  |  | CS(=O)(=O)NCC12CC(COc3ccc(-c4ccn[nH]4)nc3)(C1)C2 [Example 58-1, N-[[3-[[6-(1H-Pyrazol-5-yl)-3-pyridinyl]oxymethyl]-1-bicyclo[1.1.1]pentanyl]methyl]methanesulfonamide]
5.1 | 240 |  |  | CN(CC12CC(COc3ccc(-c4ccn[nH]4)nc3)(C1)C2)S(C)(=O)=O [Example 58-2, N-Methyl-N-[[3-[[6-(1H-pyrazol-5-yl)-3-pyridinyl]oxymethyl]-1-bicyclo[1.1.1]pentanyl]methyl]methanesulfonamide]
10 | 130 |  |  | OC(Cc1cccc(COc2ccc(-c3ccn[nH]3)nc2)c1)C(F)(F)F (stereo not shown) [Example 59-1, 1,1,1-Trifluoro-3-[3-[[6-(1H-pyrazol-5-yl)-3-pyridinyl]oxymethyl]phenyl]-2-propanol]
100 | 1800 |  |  | OC(c1ccc(COc2ccc(-c3ccn[nH]3)nc2)cc1)C(F)F (stereo not shown) [Example 59-2, 2,2-Difluoro-1-[4-[[6-(1H-pyrazol-5-yl)-3-pyridinyl]oxymethyl]phenyl]ethanol]
41 | 1500 |  |  | OC(c1ccc(COc2ccc(-c3ccn[nH]3)nc2)cc1)C(F)(F)F (stereo not shown) [Example 59-3]
37000 | 8.2 |  |  | O=C(O)C(F)(F)c1cccc(COc2ccc(-c3ccn[nH]3)nc2)c1 [Example 60-1, 2,2-Difluoro-2-[3-[[6-(1H-pyrazol-5-yl)-3-pyridinyl]oxymethyl]phenyl]acetic Acid]
130 | 29 |  |  | OCC(F)(F)c1cccc(COc2ccc(-c3ccn[nH]3)nc2)c1 [Example 60-2, 2,2-Difluoro-2-[3-[[6-(1H-pyrazol-5-yl)-3-pyridinyl]oxymethyl]phenyl]ethanol]
8000 | 72 |  |  | CS(=O)(=O)NC(=O)NCCCCOc1ccc(-c2ccn[nH]2)nc1 [Example 61-1, 1-Methylsulfonyl-3-[4-[[6-(1-H-pyrazol-5-yl)-3-pyridinyl]oxy]butyl]urea]
280 | 750 |  |  | O=C1CN(CCCCOc2ccc(-c3ccn[nH]3)nc2)C(=O)N1 [Example 61-2, 1-[4-[[6-(1-H-pyrazol-5-yl)-3-pyridinyl]oxy]butyl]imidazolidine-2,4-dione]
1900 | 27 |  |  | O=c1[nH]c(CCCCCOc2ccc(-c3ccn[nH]3)nc2)no1 [Example 62-2, 3-[5-[[6-(1H-Pyrazol-5-yl)-3-pyridinyl]oxy]pentyl]-4H-1,2,4-oxadiazol-5-one]
12000 | 31 |  |  | O=C1NC(=O)C(CCCCOc2ccc(-c3ccn[nH]3)nc2)O1 (stereo not shown) [Example 63-1, 5-[4-[[6-(1H-Pyrazol-5-yl)-3-pyridinyl]oxy]butyl]oxazolidine-2,4-dione]
780 | 41 |  |  | Oc1cc(CCCCOc2ccc(-c3ccn[nH]3)nc2)on1 [Example 64-1, 5-[4-[[6-(1H-Pyrazol-5-yl)-3-pyridinyl]oxy]butyl]-3-isoxazole]
63 | 8.1 |  |  | O=S(=O)(NCc1cccc(COc2ccc(-c3ccn[nH]3)nc2)c1)C(F)(F)F [Example 65-1, 1,1,1-Trifluoro-N-[[3-[[6-(1-H-pyrazol-5-yl)-3-pyridinyl]oxymethyl]phenyl]methyl]methanesulfonamide]
16 | 33 |  |  | CS(=O)(=O)c1cc(O)cc(COc2ccc(-c3[nH]ncc3Cl)nc2)c1 [Example 66-1, 3-[[6-(4-Chloro-1H-pyrazol-5-yl)-3-pyridinyl]oxymethyl]-5-methylsulfonylphenol]
2700 | > 50000 |  |  | NC(=O)c1cc(COc2ccc(-c3[nH]ncc3C(F)F)nc2)ccn1 [Example 67-1, 4-[[6-[4-(Difluoromethyl)-1H-pyrazol-5-yl]-3-pyridinyl]oxymethyl]-2-pyridinecarboxamide]
 |  | 49 | 27 | O=C(O)/C=C/c1cccc(COc2ccc(-c3ccn[nH]3)nc2)c1F [Example 70-1, (E)-3-[2-Fluoro-3-[[6-(1H-pyrazol-5-yl)pyridin-3-yl]oxymethyl]phenyl]prop-2-enoic Acid]
 |  | 1100 | 28 | O=C(O)CCc1cccc(COc2ccc(-c3ccn[nH]3)nc2)c1F [Example 70-2, 3-[2-Fluoro-3-[[6-(1H-pyrazol-5-yl)pyridin-3-yl]oxymethyl]phenyl]propanoic Acid]
 |  | 280 | 28 | O=C(O)C1CC1c1cccc(COc2ccc(-c3ccn[nH]3)nc2)c1F (stereo not shown) [Example 70-3, 2-[2-Fluoro-3-[[6-(1H-pyrazol-5-yl)pyridin-3-yl]oxymethyl]phenyl]cyclopropane-1-carboxylic Acid]
 |  | 56 | 150 | O=C(O)/C=C/c1cccc(CCOc2ccc(-c3ccn[nH]3)nc2)c1 [Example 70-4]
 |  | 27 | 43 | O=C(O)/C=C/c1ccc(CCOc2ccc(-c3ccn[nH]3)nc2)cc1F [Example 70-5]
 |  | 47 | 76 | O=C(O)/C=C/c1ccc(CCOc2ccc(-c3ccn[nH]3)nc2)cc1 [Example 70-6]
 |  | 120 | 130 | O=C(O)C1CC1c1ccc(CCOc2ccc(-c3ccn[nH]3)nc2)cc1F (stereo not shown) [Example 70-8]
